Measurements from patent publication US20040248954A1, “Cycloalkylsulfanyl substituted benzo[b]thiophenes as therapeutic agents” (priority 2003, published 2004).

Biological target: T1, p101/p110γ protein (PI3Kγ) (Homo sapiens, UniProt P48736)
T1 construct: HA; made in house; host or cells: Spodoptera frugiperda (Sf9) cells, baculovirus coinfection
Assay: PI3Kγ in vitro kinase assay
Format: biochemical
Settings: purified recombinant p101/p110γ with G protein β1/γ2 subunits, 20 μM ATP, 25 μM PIP2, 20 minutes at room temperature
Method: Spodtera frugiperda cells, grown in ESF921 media, were coinfected with baculovirus expressing a glu-tagged pO1 and baculovirus expressing an HA-tagged p110γ, at a 3:1 ratio of p101 baculovirus to p110γ baculovirus. Sf9 cells were grown to 1×10^7 total cells/mL in 10 L bioreactors and harvested 48-72 hours post infection. Samples of infected cells were then tested for expression of p101/p110γ PI3 kinase by immunoprecipitation and Western Blot analysis methods (see below).
To purify PI3Kγ, 4 volumes of room temperature hypotonic lysis buffer (1 mM MgCl2, 1 mM DTT, 5 mM EGTA, 1 mM Pefabloc, 0.5 μM aprotinin, 5 μM leupeptin, 2 μM pepstatin, 5 μM E64, pH 8) per gram of cell paste, was poured onto frozen cell pellets with stirring, then lysed in a nitrogen “bomb” at 400 psi (599HC T316, Parr Instrument Co, Moline, Ill.). NaCl was added to 150 mM, and sodium cholate was added to 1% and mixed for another 45 minutes. The lysates were clarified by centrifugation for 25 minutes at 14,000 rpm. The lysates were then loaded over anti-glu-linked Protein-G Sepaharose beads (Covance Research Products, Richmond, Calif.) using 20 mL resin/50 g cell paste. The column was washed with 15 volumes of wash buffer (1 mM DTT, 0.2 mM EGTA, 1 mM Pefabloc, 0.5 μM aprotinin, 5 μM leupeptin, 2 μM pepstatin, 5 μM E64, 150 mM NaCl, 1% sodium cholate, pH 8). PI3Kγ was eluted with 6 column volumes of wash buffer that contain 100 μg/mL of a peptide that competes for binding of the glu tag. The column fractions with the eluted protein (determined by taking OD280 readings) were collected and dialyzed in 0.2 mM EGTA, 1 mM DTT, 1 mM Pefabloc, 5 μM leupeptin, 0.5% sodium cholate, 150 mM NaCl, and 50% glycerol, pH 8. The fractions were stored at −80° C. until further use.
Spodtera frugiperda cells were coinfected with baculovirus expressing a glu-tagged G protein β1 and baculovirus expressing a G protein β2, at a 1:1 ratio of glu-tagged G protein β1 baculovirus to G protein β2 baculovirus. Sf9 cells are grown in 10 L bioreactors and harvested 48-72 hours post infection. Samples of infected cells were tested for G protein β1/β2 expression by Western Blot analysis, as described below. Cell lysates were homogenized and loaded onto a column of glu-tagged beads as in Biological Example 1 and competed off the column with a glu peptide and processed as described in Biological Example 1.
The inhibitory properties of the compounds in Table 1 were assayed in an in vitro PI3K assay. In a 96-well polypropylene plate, each well was spotted with 2 μL of 50 times the desired final concentration of compound in DMSO. Purified recombinant p101/p110γ protein (0.03 μg; ˜2.7 nM) and G protein β1/γ2 subunits (0.09 μg; ˜57.7 nM) for each reaction was combined in the assay buffer (30 mM HEPES, 100 mM NaCl, 1 mM EGTA, and 1 mM DTT). ATP and [γ-^32P-ATP] (0.09 μCi) were added to this mixture so that the final ATP concentration in the reaction was 20 μM. Lipid micelles were formed by sonicating phosphatidylinositol4,5-diphosphate (PIP2), phosphatidylethanolamine (PE), and Na-cholate in the assay buffer for 10 minutes, adding MgCl2 and incubating on ice for 20 minutes, for final concentrations of 25 μM PIP2, 300 μM PE, 0.02% Na-cholate, and 10 mM MgCl2 in the reaction. The reactions were started by adding equal volumes lipid and enzyme mixture in a total volume of 50 μL, allowed to run for 20 minutes at room temperature, and stopped with 100 μL 75 mM H3PO4. The lipid product was transderred to a glass fiber filter plate and washed with 75 mM H3PO4 severa; times. The presence of radioactive lipid product (PIP3) was measured by adding Wallac Optiphase mix to each well and counting in a Wallac 1450 Trilux plate reader (perkinElmer Life Sciences Inc., Boston, Mass. 02118). The IC50 for each compound tested is reported in μM in Table 1: […]

T1 sequence (P48736 whole entry, species assumed): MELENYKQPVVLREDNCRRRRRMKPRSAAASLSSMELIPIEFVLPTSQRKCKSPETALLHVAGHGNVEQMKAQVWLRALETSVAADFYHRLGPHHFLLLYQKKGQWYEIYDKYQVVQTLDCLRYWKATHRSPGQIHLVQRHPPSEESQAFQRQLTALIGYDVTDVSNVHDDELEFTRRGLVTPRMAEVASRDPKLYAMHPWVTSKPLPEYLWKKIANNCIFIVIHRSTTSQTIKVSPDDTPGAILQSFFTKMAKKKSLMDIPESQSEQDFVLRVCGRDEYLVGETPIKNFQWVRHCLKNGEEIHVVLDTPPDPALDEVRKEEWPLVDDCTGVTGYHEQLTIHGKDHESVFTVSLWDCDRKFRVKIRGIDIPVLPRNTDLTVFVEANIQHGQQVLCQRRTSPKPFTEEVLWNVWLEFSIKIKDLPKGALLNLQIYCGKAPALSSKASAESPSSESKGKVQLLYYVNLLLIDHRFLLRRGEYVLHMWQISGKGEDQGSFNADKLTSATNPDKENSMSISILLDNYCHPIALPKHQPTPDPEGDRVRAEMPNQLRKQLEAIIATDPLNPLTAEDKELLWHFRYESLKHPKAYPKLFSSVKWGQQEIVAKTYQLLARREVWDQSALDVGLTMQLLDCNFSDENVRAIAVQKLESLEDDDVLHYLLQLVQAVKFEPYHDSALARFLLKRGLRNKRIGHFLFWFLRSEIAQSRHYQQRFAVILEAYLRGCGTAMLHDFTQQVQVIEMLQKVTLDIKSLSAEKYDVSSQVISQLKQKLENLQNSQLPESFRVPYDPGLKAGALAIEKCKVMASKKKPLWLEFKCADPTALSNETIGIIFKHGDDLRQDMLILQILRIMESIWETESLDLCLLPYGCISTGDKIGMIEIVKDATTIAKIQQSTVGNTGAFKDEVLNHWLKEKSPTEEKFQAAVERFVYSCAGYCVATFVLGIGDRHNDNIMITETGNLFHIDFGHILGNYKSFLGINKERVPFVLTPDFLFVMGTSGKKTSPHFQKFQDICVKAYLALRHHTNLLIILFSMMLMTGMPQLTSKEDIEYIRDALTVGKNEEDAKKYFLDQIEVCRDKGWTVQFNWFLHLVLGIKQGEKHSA
T1 sequence (Q8WYR1 whole entry partner, species assumed): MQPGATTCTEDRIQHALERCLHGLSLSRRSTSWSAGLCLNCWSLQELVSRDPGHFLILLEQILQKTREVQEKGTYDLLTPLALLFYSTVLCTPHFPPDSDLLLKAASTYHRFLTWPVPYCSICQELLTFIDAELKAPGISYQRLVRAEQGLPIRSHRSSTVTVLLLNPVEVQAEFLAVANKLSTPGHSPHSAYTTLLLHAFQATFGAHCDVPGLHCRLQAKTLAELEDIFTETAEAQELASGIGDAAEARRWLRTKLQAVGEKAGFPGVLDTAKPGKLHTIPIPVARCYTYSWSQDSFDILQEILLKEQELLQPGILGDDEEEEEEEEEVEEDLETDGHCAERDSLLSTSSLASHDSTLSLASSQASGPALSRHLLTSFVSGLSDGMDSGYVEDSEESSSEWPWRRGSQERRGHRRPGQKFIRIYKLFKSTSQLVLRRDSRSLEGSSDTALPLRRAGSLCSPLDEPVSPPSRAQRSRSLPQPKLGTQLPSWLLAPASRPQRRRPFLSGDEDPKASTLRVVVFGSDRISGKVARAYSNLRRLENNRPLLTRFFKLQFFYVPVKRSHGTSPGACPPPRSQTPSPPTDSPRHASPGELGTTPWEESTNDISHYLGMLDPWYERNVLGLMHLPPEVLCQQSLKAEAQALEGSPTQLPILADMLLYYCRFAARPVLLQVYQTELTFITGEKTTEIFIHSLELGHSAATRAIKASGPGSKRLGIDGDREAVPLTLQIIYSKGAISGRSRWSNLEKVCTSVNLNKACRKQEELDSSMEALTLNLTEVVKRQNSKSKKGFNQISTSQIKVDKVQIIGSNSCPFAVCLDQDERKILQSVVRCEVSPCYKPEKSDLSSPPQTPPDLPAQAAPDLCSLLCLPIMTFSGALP

IC50 [nM] | SMILES
3810 | COc1cc2sc(C(=O)Nc3nnn[nH]3)c(SCC3CCCCC3)c2cc1OC [Example 2, 3-cyclohexylmethylsulfanyl-5,6-dimethoxy-benzo[b]thiophene-2-carboxylic acid (1H-tetrazol-5-yl)-amide]
249 | COc1cc2sc(C(=O)Nc3nnn[nH]3)c(SC3CCCC3)c2cc1OC [Example 5, 3-cyclopentylsulfanyl-5,6-dimethoxy-benzo[b]thiophene-2-carboxylic acid (1H-tetrazol-5-yl)-amide]
640 | COc1cc2c(SC3CCCCC3)c(C(=O)Nc3nnn[nH]3)sc2cc1COCc1ccccc1 [Example 14, 6-Benzyloxymethyl-3-cyclohexylsulfanyl-5-methoxy-benzo[b]thiophene-2-carboxylic acid (1H-tetrazol-5-yl)-amide]
2130 | CCOc1ccc2sc(C(=O)Nc3nnn[nH]3)c(SC3CCCC3)c2c1 [Example 9, 3-Cyclopentylsulfanyl-5-ethoxy-benzo[b]thiophene-2-carboxylic acid (1H-tetrazol-5-yl)-amide]
495 | COCc1cc2sc(C(=O)Nc3nnn[nH]3)c(SC3CCCCC3)c2cc1OC [Example 12, 3-Cyclohexylsulfanyl-5-methoxy-6-methoxymethyl-benzo[b]thiophene-2-carboxylic acid (1H-tetrazol-5-yl)-amide]
92 | COc1ccc2sc(C(=O)Nc3nnn[nH]3)c(SCC3CCCCC3)c2c1 [Example 1, 3-Cyclohexylmethylsulfanyl-5-methoxy-benzo[b]thiophene-2-carboxylic acid (1H-tetrazol-5-yl)-amide]
121 | COc1cc2sc(C(=O)Nc3nnn[nH]3)c(SC3CCCCC3)c2cc1OC [Example 6, 3-Cyclohexylsulfanyl-5,6-dimethoxy-benzo[b]thiophene-2-carboxylic acid (1H-tetrazol-5-yl)-amide]
1190 | COc1ccc2sc(C(=O)Nc3nnn[nH]3)c(SC3CCCC3)c2c1 [Example 3, 3-cyclopentylsulfanyl-5-methoxy-benzo[b]thiophene-2-carboxylic acid (1H-tetrazol-5-yl)-amide]
47 | COc1cc2sc(C(=O)Nc3nnn[nH]3)c(SC3CCCCC3)c2cc1C [Example 8, 3-Cyclohexylsulfanyl-6-methoxy-5-methyl-benzo[b]thiophene-2-carboxylic acid (1H-tetrazol-5-yl)-amide]
118 | COc1cc2sc(C(=O)Nc3nnn[nH]3)c(SC3CCCC3)c2cc1C [Example 7, 3-Cyclopentylsulfanyl-6-methoxy-5-methyl-benzo[b]thiophene-2-carboxylic acid (1H-tetrazol-5-yl)-amide]
1550 | CCOc1ccc2sc(C(=O)Nc3nnn[nH]3)c(SC3CCCCC3)c2c1 [Example 10, 3-Cyclohexylsulfanyl-5-ethoxy-benzo[b]thiophene-2-carboxylic acid (1H-tetrazol-5-yl)-amide]
175 | CCOCc1cc2sc(C(=O)Nc3nnn[nH]3)c(SC3CCCCC3)c2cc1OC [Example 13, 3-Cyclohexylsulfanyl-6-ethoxymethyl-5-methoxy-benzo[b]thiophene-2-carboxylic acid (1H-tetrazol-5-yl)-amide]
35 | COc1cc2c(SC3CCCCC3)c(C(=O)Nc3nnn[nH]3)sc2cc1C [Example 11, 3-Cyclohexylsulfanyl-5-methoxy-6-methyl-benzo[b]thiophene-2-carboxylic acid (1H-tetrazol-5-yl)-amide]
243 | COc1cc2sc(C(=O)Nc3nnn[nH]3)c(SCC3CC3)c2cc1OC [Example 15, 3-Cyclopropylmethylsulfanyl-5,6-dimethoxy-benzo[b]thiophene-2-carboxylic acid (1H-tetrazol-5-yl)-amide]
382 | COc1ccc2sc(C(=O)Nc3nnn[nH]3)c(SC3CCCCC3)c2c1 [Example 4, 3-cyclohexylsulfanyl-5-methoxy-benzo[b]thiophene-2-carboxylic acid (1H-tetrazol-5-yl)-amide]
